# Data as given in patent publication US20260364056A1, “METHODS OF TREATMENT OF NON-PANCREATIC GASTROINTESTINAL CANCERS” (IONCTURA bv, priority 2023, published 2026).
# What was measured:
# Experiment in all cases: Transwell migration assay
# Type in all cases: cell-based, human
# Details in all cases: 12 μM, 24 h, serum-free medium in upper chamber
# HLE cells = tested on: HLE cells
# Description: (§1) Cell culture inserts with […] pores (Corning, inc.) were coated with 50 μl of a 10 mg/ml Collagen type 1 solution (Gibco). 1.5×10^4 cells were plated in the upper chamber in serum-free medium, in absence or presence of 12 μM Compound 1, while the bottom wells were filled with complete medium. The cells were allowed to migrate across the membrane for at least 16 h. After incubation, the cells were fixed with PFA 4% for 10′ and stained with 0.02% crystal violet for 10′. The excess dye was washed off with tap water and the non-migrated cells were scraped off from the upper surface of the membrane with a cotton swab. Cell migratory ability was assessed by counting the average number of cells at least 5 field at 10× magnification.
# (§2) Images were taken at time 0, 24 h and 48 h and cell migration into the cell-free region (outlined) was quantified.
# (§3) Tumor progression is characterized by an enhanced cell motility and invasiveness. To expand upon the knowledge of the effects of Compound 1 on HLE, KKU-m213 and HT-29 cells, their migratory activity was assessed when treated with Compound 1 by using both, a wound healing and a transwell migration assay. Cells were seeded in a 12-well plate and, when a confluent monolayer was reached, an artificial gap was generated between the cells using a pipette tip. The scratch closure of migrating cells was observed after […]. […] In HLE cells a 3 μM concentration of Compound 1 is already sufficient to cause a 40% inhibition of cell migration. […] (FIG. 3B).
# HT-29 cells = tested on: HT-29 cells
# Description: as §1, §2, §3
# KKU-M213 cells = tested on: KKU-M213 cells
# Description: as §1, §2, §3
smiles,measurement,setting,value
"C[C@H](NC(=O)CCc1nc2cccnc2n1Cc1ccc(OC(F)(F)F)cc1)c1ccc(Cl)cc1 [Compound 1, N-[(S)-1-(4-chloro-phenyl)-ethyl]-3-[3-(4-trifluoromethoxy-benzyl)-3H-imidazo[4,5-b]pyridin-2-yl]-propionamide]",migratory capacity (migrated cells through the membrane),HLE cells,significantly inhibited migratory capacity
same,migratory capacity (migrated cells through the membrane),HT-29 cells,significantly inhibited migratory capacity
same,migratory capacity (migrated cells through the membrane),KKU-M213 cells,significantly inhibited migratory capacity
